Results as given in US6030951A, “Chrysomycin derivative compounds and use as antitumor agents” (Mercian Corporation, priority 1996, dated 2000).
≈ marks a conversion by molar mass, not a printed value. Where two headings read alike, the source gives them in different places.

Columns and labels:
solid cancer cells = assay: Growth-inhibiting activity against cultured solid cancer cells; assay type: cell-based, human; conditions: for effectiveness against cells derived from tumors, particularly solid cancers: colic, mammary, pulmonary and gastric cancer, mammals, in particular human
Protocol: (§1) Using various human cancer cells, the concentrations of test compounds which inhibits the growth of cancer cells by 50% were determined. Specifically, each of K562 (leukemic cell), HT29 (colic cancer), HT1080 (reticulogranuloma cell), MCF7 (mammary cancer cell), PC6 (pulmonary cancer cell) and MKN28 (gastric cancer cell) was added to a 96-well microtiter/plate at a density of 2-5×10^3 cells per well, and RPM11640 medium (phenol red-free) containing 10% FBS, together with a test compound, was added thereto. Then, this plate was incubated at 37° C. for 3 days in an atmosphere of air containing 5% CO2. Thereafter, 10 μl of WST-1 reagent [0.065% 2-(4-iodophenyl)-3-(4-nitrophenyl)-5-(2,4-disulfonyl)-2H-tetrazolium monosodium salt, 0.007% 1-methoxy-5-methylphenazium methylsulfate] was added to each well, and the plate was further incubated for 3 hours. Then, the absorbance of each well at 450 nm (with a reference wavelength of 650 nm) was measured with a plate reader.

K562 (leukemic cell) = assay: Inhibition of growth of human cancer cells (WST-1, 3 days); assay type: cell-based; conditions: read-out: IC50 value
Protocol: as §1

[1] = system: MKN28 (gastric cancer cell); assay: as above; assay type: cell-based; conditions: MKN-28, 72 h, read-out: IC50 value
Protocol: as §1

[2] = system: PC6 (pulmonary cancer cell); assay: as above; assay type: cell-based; conditions: 72 h, read-out: IC50 value
Protocol: as §1

[3] = system: MCF7 (mammary cancer cell); assay: as above; assay type: cell-based; conditions: read-out: IC50 value
Protocol: as §1

HT29 (colic cancer) = assay: as above; assay type: cell-based; conditions: HT-29, 72 h, read-out: IC50 value
Protocol: as §1

tumor cells = assay: Growth-inhibiting activity against various types of tumor cells; assay type: cell-based, human; conditions: as compared with chrysomycins
Protocol: as §1

[4] = organic solvents such as chloroform, acetone and methanol

SMILES | Solubility (Solubility; [4]) | Solubility (Solubility; water) | effectiveness against cells derived from tumors, particularly solid cancers (solid cancer cells) | IC50 (K562 (leukemic cell); 72 h, K562, 3 days, 37° C.) [µg/mL] | IC50 ([1]; MKN28, 3 days, 37° C.) [µg/mL] | IC50 ([2]; PC6, 3 days, 37° C.) [µg/mL] | IC50 ([3]; 72 h, MCF7, 3 days, 37° C.) [µg/mL] | IC50 (HT29 (colic cancer); HT29, 3 days, 37° C.) [µg/mL] | growth-inhibiting activity against various types of tumor cells (tumor cells) | IC50 (K562 (leukemic cell); K562, 72 h) [µg/mL] | IC50 [1] [µg/mL] | IC50 [2] [µg/mL] | IC50 ([3]; MCF7, 72 h) [µg/mL] | IC50 (HT29 (colic cancer)) [µg/mL] | growth-inhibiting activity against all types of cultured solid cancers used for testing (solid cancer cells; all types tested)
COc1cc2c(oc(=O)c3cc(C)cc(OC)c32)c2c(C3OC(C)C(=O)C(C)(O)C3O)ccc(O)c12 (stereo not drawn) [Mer-1020dB] | Soluble | insoluble | remarkable effectiveness | 0.28 (≈ 0.566 µM) | 0.35 (≈ 0.708 µM) | 0.11 (≈ 0.222 µM) | 0.35 (≈ 0.708 µM) | 0.35 (≈ 0.708 µM) | – | – | – | – | – | – | –
COc1cc2c(oc(=O)c3cc(C)cc(OC)c32)c2cccc(O)c12 [Mer-1020dE] | Soluble | insoluble | – | 8.1 (≈ 24.1 µM) | 11 (≈ 32.7 µM) | 34 (≈ 101 µM) | 17 (≈ 50.5 µM) | 19 (≈ 56.5 µM) | lower as compared with chrysomycins | – | – | – | – | – | –
C=Cc1cc(OC)c2c(c1)c(=O)oc1c2cc(OC)c2c(O)ccc(C3OC(C)C(O)(C(C)=O)C3O)c21 (stereo not drawn) [Mer-1020dD] | Soluble | insoluble | remarkable effectiveness | 0.21 (≈ 0.415 µM) | 1 (≈ 1.97 µM) | 2.5 (≈ 4.94 µM) | 0.6 (≈ 1.18 µM) | 0.15 (≈ 0.296 µM) | – | – | – | – | – | – | –
COc1cc2c(oc(=O)c3cc(C)cc(OC)c32)c2c(C3OC(C)C(O)C(C)(O)C3O)ccc(O)c12 (stereo not drawn) [Chrysomycin B, reference compound] | – | – | – | 1.76 (≈ 3.54 µM) | 2.65 (≈ 5.34 µM) | 3.5 (≈ 7.05 µM) | 2.58 (≈ 5.2 µM) | 2.63 (≈ 5.3 µM) | – | – | – | – | – | – | –
C=Cc1cc(OC)c2c(c1)c(=O)oc1c2cc(OC)c2c(O)ccc(C3OC(C)C(=O)C(C)(O)C3O)c21 (stereo not drawn) [Mer-1020dC] | Soluble | insoluble | remarkable effectiveness | 0.11 (≈ 0.217 µM) | 0.32 (≈ 0.632 µM) | 0.03 (≈ 0.0592 µM) | 0.42 (≈ 0.829 µM) | 0.1 (≈ 0.197 µM) | – | – | – | – | – | – | –
C=Cc1cc(OC)c2c(c1)c(=O)oc1c2cc(OC)c2c(O)ccc(C3OC(C)C(O)C(C)(O)C3O)c21 (stereo not drawn) [Chrysomycin A, reference compound] | – | – | – | – | – | – | – | – | – | 0.106 (≈ 0.208 µM) | 0.144 (≈ 0.283 µM) | 0.335 (≈ 0.659 µM) | 0.53 (≈ 1.04 µM) | 0.84 (≈ 1.65 µM) | –
COc1cc2c(oc(=O)c3cc(C)cc(OC)c32)c2c(C3OC(C)C(O)(C(C)=O)C3O)ccc(O)c12 (stereo not drawn) [Mer-1020dA] | Soluble | insoluble | remarkable effectiveness | 0.36 (≈ 0.728 µM) | 0.017 (≈ 0.0344 µM) | 0.064 (≈ 0.129 µM) | 0.032 (≈ 0.0647 µM) | 0.075 (≈ 0.152 µM) | – | – | – | – | – | – | significantly excellent growth-inhibiting activity
